{
  "source": "paper PMC9603750",
  "about": "“Chalcone-Acridine Hybrid Suppresses Melanoma Cell Progression via G2/M Cell Cycle Arrest, DNA Damage, Apoptosis, and Modulation of MAP Kinases Activity” (International Journal of Molecular Sciences, 2022)",
  "key": {"A2058 melanoma cells [1]": {"system": "A2058 melanoma cells", "assay": "AO/PI viability assay (fluorescence microscopy)", "assay_type": "cell-based, human", "details": "A2058, 1C 10 μmol/L, 24, 48 and 72 h", "description": "(§1) The A2058 and BLM melanoma cells were seeded at a density of 5 × 10^4/well into 6-well culture plates. Twenty-four hours after seeding, A2058 cells were treated with chalcone 1C at 10 μmol/L concentration, BLM cells at 20 μmol/L concentration and both melanoma cell lines were treated with vehicle (DMSO) at the same concentrations. At 24, 48 and 72 h after treatment, the culture medium was removed, the cells were washed with washing buffer (PBS) and fixed with 4% paraformaldehyde (pH 7.2) for 30 min. In the next step, the paraformaldehyde was removed, the cells were washed with PBS and the staining solution (10 μg/mL acridine orange and 10 μg/mL propidium iodide, Sigma-Aldrich) was added to each well for 1 h incubation at room temperature in the dark. Finally, the staining solution was removed, the cells were washed with PBS and apoptosis was observed using an automated Cytation™ 3 Cell Imaging Multi-Mode Reader (Biotek, Winooski, VT, USA)."}, "BLM melanoma cells [2]": {"system": "BLM melanoma cells", "assay": "AO/PI viability assay (fluorescence microscopy)", "assay_type": "cell-based, human", "details": "1C 20 μmol/L, 24, 48 and 72 h", "description": "as §1"}, "A2058 melanoma cells [3]": {"system": "A2058 melanoma cells", "assay": "Cell cycle analysis by flow cytometry (PI)", "assay_type": "cell-based, human", "details": "A2058, 1C 10 μmol/L", "description": "(§2) The A2058 and BLM melanoma cells were seeded at a density of 1 × 10^5/dish in a Petri dish. Twenty-four hours after incubation, A2058 cells were treated with chalcone 1C at 10 μmol/L concentration, BLM cells at 20 μmol/L concentration and both melanoma cell lines were treated with DMSO as the negative control at the same concentrations. For flow cytometric analysis of the cell cycle, adherent and floating A2058 and BLM melanoma cells were harvested in three different times (24, 48 and 72 h) after treatment with chalcone 1C and DMSO, washed in cold washing buffer (PBS), fixed in cold 70% ethanol and stored at −20 °C at least overnight. Prior to analysis, cells were washed with PBS, resuspended in staining solution (Triton X-100 final concentration 0.1%, ribonuclease A final concentration 0.5 mg/mL and propidium iodide final concentration 0.025 mg/mL, all Sigma), and incubated for 30 min in the dark at room temperature. Stained melanoma cells were analysed using a BD FACSCalibur^TM Flow Cytometer (Becton Dickinson, San Jose, CA, USA). Three independent analyses were performed."}, "BLM melanoma cells [4]": {"system": "BLM melanoma cells", "assay": "Cell cycle analysis by flow cytometry (PI)", "assay_type": "cell-based, human", "details": "1C 20 μmol/L", "description": "as §2"}, "MCF-10A": {"system": "MCF-10A", "assay": "MTT assay (metabolic activity)", "assay_type": "cell-based", "details": "Homo sapiens; MCF-10A noncancer cell line, 72 h incubation", "description": "Cell lines A2058 (human melanoma lymph node metastasis, cat. 91100402) from ECACC (Public Health England, Salisbury, UK) and BLM (human melanoma lung metastasis a gift from prof. K. Smetana, Institute of Anatomy, Charles University in Prague) were cultured in a medium consisting of high glucose Dulbecco’s Modified Eagle’s Medium (DMEM) and sodium pyruvate (GE Healthcare, Piscataway, NJ, USA). The growth medium was supplemented with a 10% fetal bovine serum (FBS) and antibiotic/antimycotic solution 1 × HyClone™ (GE Healthcare, Chicago, IL, USA). The MCF-10A (human mammary epithelial cells) cell line was cultured in a medium consisting of high glucose Dulbecco’s Modified Eagle’s Medium F12 (DMEM/F12) (Biosera, Kansas City, MO, USA). The growth medium was supplemented with a 10% FBS, antibiotic/antimycotic solution 1 × HyClone™ (GE Healthcare, Chicago, IL, USA), epidermal growth factor (EGF) (20 ng/mL final), hydrocortisone (0.5 μg/mL final) and insulin (10 μg/mL final) (Sigma-Aldrich Chemie, Steinheim, Germany). Cells were cultured in humidified air at 37 °C with atmosphere containing 5% CO2.\nThe half-maximal inhibitory concentration values (IC50) and metabolism inhibition of tested synthetic chalcone derivatives were determined by MTT (3-(4,5-di-methylthiazol-2-yl)2,5-diphenyltetrazolium bromide) colorimetric assay (Sigma-Aldrich Chemie, Steinheim, Germany). Tested cell lines were seeded at a density of 5 × 10^3 cells/well in 96-well culture plates. After 24 h, the tested chalcones in concentrations of 100, 50 and 10 μmol/L were added and incubation proceeded for the next 72 h. In the next step, 10 μL of MTT (5 mg/mL) was added to each well containing cells and incubated for another 4 h at 37 °C during which MTT was metabolized to insoluble formazan in cells. After 4 h, 100 μL of a 10% sodium dodecyl sulphate (SDS) was added to each well and another 24 h were allowed for the formazan crystals to dissolve. The metabolic activity of cells was evaluated by measuring the absorbance at wavelength 540 nm using the automated Cytation™ 3 Cell Imaging Multi-Mode Reader (Biotek, Winooski, VT, USA). Three independent analyses were performed."}, "A2058 melanoma cells [5]": {"system": "A2058 melanoma cells", "assay": "Flow cytometric analysis of DNA damage (ATM, SMC1, H2A.X phosphorylation)", "assay_type": "cell-based, human", "description": "(§3) The A2058 and BLM melanoma cells were seeded 1 × 10^6 in Petri dishes with complete growth medium and cultivated for 24 h. After cell cultivation, the A2058 cells were treated with chalcone 1C at 10 μmol/L concentration, BLM cells at 20 μmol/L concentration and both melanoma cell lines were treated with DMSO as the negative control at the same concentrations for 24, 48 and 72 h. Adherent and floating cells were harvested, pelleted by centrifugation at 1200 rpm for 5 min. Pellets were resuspended in washing buffer (PBS) and divided for a particular analysis. Afterwards, cells were prepared according to assay kit protocols or fixed with cold 4% paraformaldehyde (15 min) and permeabilized with 90% methanol (10 min on ice) with washing steps (PBS) and stained prior to analysis (Table 5) for 15 min in the dark at room temperature. Fluorescence was detected using a BD FACSCalibur^TM Flow Cytometer (Becton Dickinson, San Jose, CA, USA)."}, "BLM melanoma cells [6]": {"system": "BLM melanoma cells", "assay": "Flow cytometric analysis of DNA damage (ATM, SMC1, H2A.X phosphorylation)", "assay_type": "cell-based, human", "description": "as §3"}, "A2058 melanoma cells [7]": {"system": "A2058 melanoma cells", "assay": "Flow cytometric analysis of cytochrome c release", "assay_type": "cell-based, human", "details": "A2058, 1C 10 μmol/L, 24, 48 and 72 h", "description": "as §3"}, "BLM melanoma cells [8]": {"system": "BLM melanoma cells", "assay": "Flow cytometric analysis of cytochrome c release", "assay_type": "cell-based, human", "details": "1C 20 μmol/L, 24, 48 and 72 h", "description": "as §3"}, "[9]": {"details": "A2058, 1C 10 μmol/L, 24, 48 and 72 h"}},
  "data": [
    {"molecule": "COc1cccc(OC)c1C(=O)/C=C/c1c2ccccc2nc2ccccc12", "note": "[Compound 1C, (2E)-3-(acridin-9-yl)-1-(2,6-dimethoxyphenyl)prop-2-en-1-one]", "values": [
      {"measurement": "Proliferation and viability (AO/PI staining)", "setting": "A2058 melanoma cells [1]", "result": "significant decrease in proliferation and viability"},
      {"measurement": "Proliferation and viability (AO/PI staining)", "setting": "BLM melanoma cells [2]", "result": "significant decrease in proliferation and viability"},
      {"measurement": "G1", "setting": "A2058 melanoma cells [3]; 24 h", "result": "34.67 ± 4.92"},
      {"measurement": "G2/M", "setting": "A2058 melanoma cells [3]; 24 h", "result": "52.23 ± 7.03"},
      {"measurement": "S", "setting": "A2058 melanoma cells [3]; 24 h", "result": "11.79 ± 1.51"},
      {"measurement": "subG0", "setting": "A2058 melanoma cells [3]; 24 h", "result": "1.30 ± 1.11"},
      {"measurement": "G1", "setting": "A2058 melanoma cells [3]; 48 h", "result": "24.60 ± 11.45"},
      {"measurement": "G2/M", "setting": "A2058 melanoma cells [3]; 48 h", "result": "59.73 ± 12.23"},
      {"measurement": "S", "setting": "A2058 melanoma cells [3]; 48 h", "result": "8.12 ± 1.15"},
      {"measurement": "subG0", "setting": "A2058 melanoma cells [3]; 48 h", "result": "7.54 ± 3.73"},
      {"measurement": "G1", "setting": "A2058 melanoma cells [3]; 72 h", "result": "18.67 ± 8.56"},
      {"measurement": "G2/M", "setting": "A2058 melanoma cells [3]; 72 h", "result": "60.37 ± 4.42"},
      {"measurement": "S", "setting": "A2058 melanoma cells [3]; 72 h", "result": "8.85 ± 2.70"},
      {"measurement": "subG0", "setting": "A2058 melanoma cells [3]; 72 h", "result": "12.12 ± 5.84"},
      {"measurement": "G1", "setting": "BLM melanoma cells [4]; 24 h", "result": "19.35 ± 1.43"},
      {"measurement": "G2/M", "setting": "BLM melanoma cells [4]; 24 h", "result": "63.25 ± 0.45"},
      {"measurement": "S", "setting": "BLM melanoma cells [4]; 24 h", "result": "9.19 ± 0.28"},
      {"measurement": "subG0", "setting": "BLM melanoma cells [4]; 24 h", "result": "8.22 ± 1.62"},
      {"measurement": "G1", "setting": "BLM melanoma cells [4]; 48 h", "result": "11.65 ± 0.69"},
      {"measurement": "G2/M", "setting": "BLM melanoma cells [4]; 48 h", "result": "54.95 ± 0.45"},
      {"measurement": "S", "setting": "BLM melanoma cells [4]; 48 h", "result": "16.35 ± 0.20"},
      {"measurement": "subG0", "setting": "BLM melanoma cells [4]; 48 h", "result": "17.05 ± 0.45"},
      {"measurement": "G1", "setting": "BLM melanoma cells [4]; 72 h", "result": "13.85 ± 1.18"},
      {"measurement": "G2/M", "setting": "BLM melanoma cells [4]; 72 h", "result": "29.25 ± 0.04"},
      {"measurement": "S", "setting": "BLM melanoma cells [4]; 72 h", "result": "32.60 ± 2.69"},
      {"measurement": "subG0", "setting": "BLM melanoma cells [4]; 72 h", "result": "24.30 ± 3.84"},
      {"measurement": "IC50", "setting": "MCF-10A", "result": "36.5 ± 0.87", "unit": "µM"},
      {"measurement": "Phosphorylation of H2A.X", "setting": "A2058 melanoma cells [5]; [9]", "result": "significantly induced"},
      {"measurement": "Phosphorylation of SMC1", "setting": "A2058 melanoma cells [5]; [9]", "result": "significant phosphorylation"},
      {"measurement": "Phosphorylation of ATM", "setting": "A2058 melanoma cells [5]; A2058, 1C 10 μmol/L, time-dependent (24, 48 and 72 h)", "result": "significantly induced"},
      {"measurement": "Phosphorylation of H2A.X", "setting": "BLM melanoma cells [6]; 1C 20 μmol/L, 24, 48 and 72 h", "result": "significantly induced"},
      {"measurement": "Phosphorylation of SMC1", "setting": "BLM melanoma cells [6]; 1C 20 μmol/L, 24, 48 and 72 h", "result": "significant phosphorylation"},
      {"measurement": "Phosphorylation of ATM", "setting": "BLM melanoma cells [6]; 1C 20 μmol/L, time-dependent (24, 48 and 72 h)", "result": "significantly induced"},
      {"measurement": "Cytochrome c release", "setting": "A2058 melanoma cells [7]", "result": "significant release of cytochrome c"},
      {"measurement": "Cytochrome c release", "setting": "BLM melanoma cells [8]", "result": "significant release of cytochrome c"}
    ]}
  ]
}
